The values below come from patent US20230241088A1, “COMPOSITION FOR PREVENTING OR TREATING LUNG CANCER COMPRISING ORTHO-TOPOLIN RIBOSIDE AS ACTIVE INGREDIENT” (CHUNG-ANG UNIVERSITY INDUSTRY-ACADEMY COOPERATION FOUNDATION, priority 2022, published 2023).

Data set [1] concerns NSCLC cell lines (A549, H1437, H2087, H522, and HCC827). Kind of data set: GC-MS and nanoESI-MS metabolite and lipid profiling of NSCLC cells. The data set is classed as cell-based, Human. Here is the method: The cells were seeded at a density of 2×10^5 cells/mL in a 6-well plate and treated with oTR (10 μM) for 48 hours. The cells were pooled from 3 wells in the 6-well plate and centrifuged at 1,000×g at 4° C. for 2 minutes. The cells were frozen in liquid nitrogen and stored at −70° C. until analysis. The cells were lysed by two freeze-thaw cycles using liquid nitrogen and 37° C. water bath. Protein concentrations were determined using the Bio-Rad protein assay kit (Thermo Scientific, Rockford, Ill.). Bovine serum albumin (BSA) was used as a standard for normalization. The cells were freeze-dried and stored at −70° C. until additional analysis.
To perform metabolite and lipid analyses of the extracted samples of NSCLC cells and xenograft tumor tissues, GC-MS and nanoESI-MS analyses were conducted according to a previously described method. For quality control (QC), the equal volume of mixture was taken from each sample to be analyzed.
Raw data files of the lipid analysis (*.raw) were converted into *.mzXML format using the Proteo Wizard MSConvert software. The metabolite and lipid mass spectra were converted using the Expressionist® MSX software (version 2013.0.39, Genedata, Basel, Switzerland) for data processing. The data obtained from NSCLC cells were divided by the peak intensity of the internal standard and total protein content for normalization. The data obtained from the NSCLC xenograft model were divided by the peak intensity of the internal standard for normalization. The data obtained thereby were used for fold-change analysis using the MetaboAnalyst (version 5.0; http://www.metaboanalyst.ca). SPSS software (version 26, IBM, Somers, N.Y.) was used for significance examination for the results, and identification was conducted by Student's t-test and Mann-Whitney test. All data were mean-centered and pretreated to Pareto scaling for principal component analysis (PCA) and orthogonal partial least-squares discriminant analysis (OPLS-DA), performed using the SIMCA-P software (version 15.0.2, Sartorius Stedim Data Analytics AB, Umea, Sweden). Cross validations and permutation tests (100 times) were performed to evaluate the goodness of fit value and predictability of the OPLS-DA model. Volcano plots were generated using the GraphPad Prism 9.0.
oTR-induced alterations of metabolic and lipidomic profiles were analyzed using 5 NSCLC cell lines (A549, H1437, H2087, H522, and HCC827) and xenograft tumor tissues by performing GC-MS and nanoESI-MS analyses. The relative changes in identified metabolites and intact lipid species are shown as fold-changes. […]

The next data set has as its system A549 cells. Description: Mitochondrial function analysis (Seahorse XFe24, OCR). In kind it is cell-based, Human. The method, then:
Mitochondrial and glycolytic functions were assessed using Seahorse XFe24 analyzer (Agilent Technologies, Lexington, Mass., USA). A549 cells were seeded in a cell culture plate at a density of 1.5×10^4 cells/well. Cells were treated with oTR (5, 10, and 50 μM) for 48 hours after achieving approximately 70-80% confluency. The glycolytic and mitochondrial functions were determined by measuring the proton efflux rate (PER) and oxygen consumption rate (OCR), respectively. Glycolytic PER (glycoPER) was obtained by subtracting mitochondria-derived protons from the total PER. The analyses were conducted according to the manufacturer's instructions.
To measure ATP production, oligomycin, an ATPase inhibitor, was added to the cells to inhibit mitochondria-derived ATP synthesis. Then, when carbonyl cyanide-4-(trifluoromethoxy)phenylhydrazone (FCCP), a mitochondrial oxidative phosphorylation uncoupler, was added to the cells, the OCR reached the maximal level, indicating maximal mitochondrial respiration. Spare respiratory capacity (SRC) indicates the amount of extra ATP produced by oxidative phosphorylation when energy demand of the cells increases suddenly. […] To determine the mitochondrial fuel source (glucose, glutamine, and fatty acid) that was better utilized in NSCLC cells, investigation was performed on the OCR of each fuel source in the absence and presence of each inhibitor. UK5099 (for glucose), BPTES (for glutamine), and etomoxir (for fatty acid).

Data set [2] deals with p-ERK, p-AKT, cleaved caspase-3, LC-III in A549 cells. Kind of data set: Immunoblot analysis of cell lysates. The settings on record: NSCLC cells. The data set is classed as cell-based, Human. The method, then: The immunoblot analysis was carried out according to a previously described method. A549 cells (4×10^5) were grown to approximately 70-80% confluency and treated with oTR (5, 10, and 50 μM) for 48 hours. The cell lysates and tissue lysates were prepared and subjected to SDS-PAGE for immunoblotting with the respective antibodies. Anti-caspase-3 (9662), anti-p-AKT (4058), and anti-AKT (9272) antibodies were purchased from Cell Signaling Technology (Danvers, Mass., USA). Anti-ERK1/ERK2 (MAB1576) and anti-p-ERK1/ERK2 (AF1018) were purchased from R&D Systems (Minneapolis, Minn., USA). Anti-LC-III (NB100-2331) antibody was purchased from Novus Biologicals (Littleton, Colo., USA). Anti-β-actin (sc-47778) and anti-GAPDH (sc-47724) antibody was purchased from Santa Cruz Biotechnology (Santa Cruz, Calif., USA).
Background: A western blot detects proteins with antibodies after separation by electrophoresis.

For data set [3] the following is noted: doses of 100 mg/kg or 150 mg/kg, previous study; cited from earlier work.

As to `OC[C@H]1O[C@@H](n2cnc3c(NCc4ccccc4O)ncnc32)[C@H](O)[C@@H]1O` [oTR, ortho topolin riboside], the lactate level entry in data set [1] (all NSCLC cell lines, oTR 10 μM, 48 hours) was “significantly decreased”. Also, the “levels of myo-inositol, amino acids, organic acids (malate and lactate), pyrimidines (uracil and uridine), creatinine, hypoxanthine, putrescine” value in data set [1] (oTR 10 μM, 48 hours, vs untreated NSCLC cells) is reported as “decreased”. In data set [1] (oTR-treated NSCLC cells), the “PC, PE, and PS species and Cer 18:1/22:0 levels” value is given as “increased”; the “levels of PG and PI species” value is “decreased”. In the data set on A549 cells (oTR 10 μM, FIG. 5C), the “glucose oxidation (mitochondrial fuel capacity)” value is reported as “did not differ”; the “glutamine and fatty acid oxidations (mitochondrial fuel capacity)” value is on record as “significantly reduced”. In addition, the “OCR (oxygen consumption rate)” value in the data set with A549 cells (oTR 5, 10, and 50 μM, 48 hours, FIG. 5B) is given as “reduced”. Moreover, the “basal OCR, ATP production, and SRC” value with A549 cells (oTR-treated vs untreated A549 cells) was “Significant reduction”. Further, in data set [2] (50 μM oTR), the “cleaved caspase-3” value was “significantly increased”. For the same compound, the “level of LC-III, an autophagy marker” value in data set [2] (FIG. 6C) is given as “did not change”. Also, in data set [2] (oTR 48 hours), the “phosphorylated AKT (p-AKT)” value was “significantly decreased” and the “phosphorylated ERK1/2 (p-ERK)” value is recorded as “significantly decreased”. Besides, the acute toxicity entry in data set [3] is recorded as “no acute toxicity”.
